Source: patent US6423689B1, “Peptidyl calcium channel blockers” (Warner-Lambert Company, priority 1997, dated 2002)

Target: T1, N-type Ca2+ channels in IMR-32 cells (Homo sapiens, UniProt Q00975)
T1 construct: host or cells: IMR-32 cells, differentiated with dibutyryl cAMP and bromodeoxyuridine
Assay: Inhibition of N-type calcium flux in IMR-32 cells (Indo-1 fluorescence, nitrendipine present)
Assay type: cell-based
Details: for IC50: IMR-32 cells, 5 μM nitrendipine, K+ depolarization; for inhibition at 1 µM / inhibition at 10 µM: IMR-32
In short: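 With L-type flux blocked by 5 μM nitrendipine, N-type Ca2+ entry was read as the Indo-1 emission ratio (400/490 nm, excitation 350 nm) at 30° C after KCl depolarization.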

T1 sequence (Q00975 whole entry): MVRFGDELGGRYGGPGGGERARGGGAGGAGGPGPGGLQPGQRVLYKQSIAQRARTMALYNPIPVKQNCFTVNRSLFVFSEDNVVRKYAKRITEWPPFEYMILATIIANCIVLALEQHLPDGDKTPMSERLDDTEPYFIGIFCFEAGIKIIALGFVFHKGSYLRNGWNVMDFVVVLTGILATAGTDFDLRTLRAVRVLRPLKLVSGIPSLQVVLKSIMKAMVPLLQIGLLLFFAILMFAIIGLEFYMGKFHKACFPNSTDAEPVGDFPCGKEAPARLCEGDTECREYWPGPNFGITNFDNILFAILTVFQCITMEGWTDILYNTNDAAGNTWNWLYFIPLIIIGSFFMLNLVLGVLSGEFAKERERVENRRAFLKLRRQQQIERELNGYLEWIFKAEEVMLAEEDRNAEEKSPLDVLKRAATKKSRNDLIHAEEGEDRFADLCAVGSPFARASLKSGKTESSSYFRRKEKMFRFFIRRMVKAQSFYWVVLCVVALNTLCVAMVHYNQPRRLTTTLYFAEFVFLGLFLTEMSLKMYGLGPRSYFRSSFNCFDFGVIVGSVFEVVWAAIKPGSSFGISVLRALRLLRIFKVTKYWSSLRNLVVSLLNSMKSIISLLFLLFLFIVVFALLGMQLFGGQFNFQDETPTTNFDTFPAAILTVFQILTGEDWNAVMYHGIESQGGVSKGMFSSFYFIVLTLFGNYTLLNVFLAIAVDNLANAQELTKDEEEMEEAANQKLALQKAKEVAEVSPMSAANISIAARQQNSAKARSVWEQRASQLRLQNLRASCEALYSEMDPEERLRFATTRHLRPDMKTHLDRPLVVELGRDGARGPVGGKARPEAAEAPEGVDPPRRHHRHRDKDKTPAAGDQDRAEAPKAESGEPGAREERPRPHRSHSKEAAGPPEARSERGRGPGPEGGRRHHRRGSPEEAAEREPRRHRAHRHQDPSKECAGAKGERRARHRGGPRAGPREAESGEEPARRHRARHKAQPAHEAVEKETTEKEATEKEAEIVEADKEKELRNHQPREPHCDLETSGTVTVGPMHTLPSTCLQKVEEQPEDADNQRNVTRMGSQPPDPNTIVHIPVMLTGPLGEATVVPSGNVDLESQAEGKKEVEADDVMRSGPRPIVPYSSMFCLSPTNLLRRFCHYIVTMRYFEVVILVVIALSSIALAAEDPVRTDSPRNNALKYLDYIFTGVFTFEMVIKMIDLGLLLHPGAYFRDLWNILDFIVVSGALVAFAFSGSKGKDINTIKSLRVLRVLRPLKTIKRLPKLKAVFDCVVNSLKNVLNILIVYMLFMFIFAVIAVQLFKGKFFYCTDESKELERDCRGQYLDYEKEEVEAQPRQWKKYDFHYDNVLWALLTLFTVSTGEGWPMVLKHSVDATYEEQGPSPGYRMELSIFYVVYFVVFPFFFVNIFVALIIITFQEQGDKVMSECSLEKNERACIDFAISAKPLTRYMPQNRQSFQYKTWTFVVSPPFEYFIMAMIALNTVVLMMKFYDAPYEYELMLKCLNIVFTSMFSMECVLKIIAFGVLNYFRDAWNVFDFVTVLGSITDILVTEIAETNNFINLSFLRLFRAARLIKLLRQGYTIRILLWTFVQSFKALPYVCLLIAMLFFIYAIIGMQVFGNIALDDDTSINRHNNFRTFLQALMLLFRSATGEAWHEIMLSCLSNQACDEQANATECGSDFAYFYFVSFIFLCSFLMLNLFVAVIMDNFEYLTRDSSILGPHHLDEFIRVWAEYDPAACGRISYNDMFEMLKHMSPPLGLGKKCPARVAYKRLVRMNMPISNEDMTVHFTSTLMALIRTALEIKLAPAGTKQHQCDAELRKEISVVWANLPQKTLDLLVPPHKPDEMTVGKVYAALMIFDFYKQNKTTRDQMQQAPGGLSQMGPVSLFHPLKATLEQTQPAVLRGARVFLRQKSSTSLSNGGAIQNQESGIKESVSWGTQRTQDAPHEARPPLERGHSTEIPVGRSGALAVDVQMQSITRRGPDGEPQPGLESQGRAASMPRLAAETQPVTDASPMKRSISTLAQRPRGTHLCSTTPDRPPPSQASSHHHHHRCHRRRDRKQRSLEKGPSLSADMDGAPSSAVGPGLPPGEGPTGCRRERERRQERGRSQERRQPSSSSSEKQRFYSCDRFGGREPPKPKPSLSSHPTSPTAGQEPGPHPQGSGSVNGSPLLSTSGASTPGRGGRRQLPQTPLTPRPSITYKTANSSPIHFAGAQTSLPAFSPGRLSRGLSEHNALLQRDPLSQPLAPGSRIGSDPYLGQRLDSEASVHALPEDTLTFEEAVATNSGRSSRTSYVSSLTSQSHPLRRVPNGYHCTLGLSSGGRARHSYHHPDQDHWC
T1 sequence (P54289 25-956 partner limits assumed): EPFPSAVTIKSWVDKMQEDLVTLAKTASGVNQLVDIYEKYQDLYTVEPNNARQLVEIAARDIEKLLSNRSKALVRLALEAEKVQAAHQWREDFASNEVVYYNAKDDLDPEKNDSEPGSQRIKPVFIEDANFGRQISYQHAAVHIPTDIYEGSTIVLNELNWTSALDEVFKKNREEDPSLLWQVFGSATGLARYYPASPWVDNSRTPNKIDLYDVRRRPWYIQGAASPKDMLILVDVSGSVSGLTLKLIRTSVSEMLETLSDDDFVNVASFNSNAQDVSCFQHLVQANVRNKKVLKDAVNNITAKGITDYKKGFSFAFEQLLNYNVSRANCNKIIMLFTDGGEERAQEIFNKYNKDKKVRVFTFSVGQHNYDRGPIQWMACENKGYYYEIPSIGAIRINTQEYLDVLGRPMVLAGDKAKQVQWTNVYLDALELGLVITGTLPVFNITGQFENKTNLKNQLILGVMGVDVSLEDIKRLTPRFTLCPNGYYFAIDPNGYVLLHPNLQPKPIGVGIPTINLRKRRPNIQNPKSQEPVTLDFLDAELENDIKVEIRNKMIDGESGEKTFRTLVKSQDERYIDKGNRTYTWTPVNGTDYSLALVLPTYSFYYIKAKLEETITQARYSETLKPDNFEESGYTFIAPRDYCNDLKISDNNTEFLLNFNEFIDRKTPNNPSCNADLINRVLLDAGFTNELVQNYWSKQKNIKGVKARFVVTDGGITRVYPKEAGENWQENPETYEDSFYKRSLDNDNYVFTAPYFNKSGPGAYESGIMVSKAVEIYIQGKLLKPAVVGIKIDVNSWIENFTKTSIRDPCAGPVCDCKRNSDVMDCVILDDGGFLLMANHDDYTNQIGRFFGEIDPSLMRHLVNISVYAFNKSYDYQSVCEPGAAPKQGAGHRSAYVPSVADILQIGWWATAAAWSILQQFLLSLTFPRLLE
T1 sequence (P54289 957-1103 partner limits assumed): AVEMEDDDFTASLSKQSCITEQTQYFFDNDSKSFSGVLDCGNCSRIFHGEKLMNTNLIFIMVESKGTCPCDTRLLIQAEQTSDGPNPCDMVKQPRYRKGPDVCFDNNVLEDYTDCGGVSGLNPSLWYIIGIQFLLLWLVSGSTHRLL
T1 sequence (P54284 whole entry partner): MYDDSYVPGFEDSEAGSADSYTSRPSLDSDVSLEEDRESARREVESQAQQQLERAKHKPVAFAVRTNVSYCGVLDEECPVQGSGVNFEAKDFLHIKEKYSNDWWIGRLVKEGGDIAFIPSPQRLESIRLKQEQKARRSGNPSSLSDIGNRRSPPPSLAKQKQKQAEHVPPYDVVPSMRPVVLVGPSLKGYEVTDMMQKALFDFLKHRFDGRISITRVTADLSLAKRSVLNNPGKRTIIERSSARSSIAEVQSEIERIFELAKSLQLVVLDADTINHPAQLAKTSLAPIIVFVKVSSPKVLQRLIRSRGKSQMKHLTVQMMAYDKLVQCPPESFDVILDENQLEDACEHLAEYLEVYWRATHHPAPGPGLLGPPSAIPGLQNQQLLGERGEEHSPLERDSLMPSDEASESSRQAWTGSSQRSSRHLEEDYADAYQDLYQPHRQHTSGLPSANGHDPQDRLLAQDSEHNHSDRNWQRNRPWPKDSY

CC(C)C[C@H](NC(=O)N1CCCCCC1)C(=O)N[C@@H](Cc1ccc(OCc2ccccc2)cc1)C(=O)N1CCCNCC1 [Example 259, [S-(R*,R*)]-Azepane-1-carboxylic acid {1-[2-(4-benzyloxy-phenyl)-1-(1,4]diazepane-1-carbonyl)-ethylcarbamoyl]-3-methyl-butyl}-amide]
IC50: 2400 nM

CC(C)C[C@H](NC(=O)N1CCCCCC1)C(=O)N[C@@H](Cc1ccc(OCc2ccccc2)cc1)C(=O)c1cc[nH]n1 (relative stereo) [Example 261, [S-(R*,R*)]-Azepane-1-carboxylic acid {1-[2-(4-benzyloxy-phenyl)-1-(pyrazole-3-carbonyl)-ethylcarbamoyl]-3-methyl-butyl}-amide]
IC50: 2000 nM

CC(C)C[C@H](NC(=O)Nc1cc(C(F)(F)F)cc(C(F)(F)F)c1)C(=O)N[C@@H](Cc1ccc(OCc2ccccc2)cc1)C(=O)OC(C)(C)C (relative stereo) [Example 83, [S-(R*,R*)]-3-(4-Benzyloxy-phenyl)-2-{2-[3-(3,5-bis-trifluoromethyl-phenyl)-ureido]-4-methyl-pentanoylamino}-propionic acid tert-butyl ester]
Inhibition of Calcium Flux in IMR-32 Cells % Inhibition at 1 μM: 19%

CC(C)C[C@H](NC(=O)Nc1ccc(Oc2ccccc2)cc1)C(=O)N[C@@H](Cc1ccc(OCc2ccccc2)cc1)C(=O)OC(C)(C)C (relative stereo) [Example 65, [S-(R*,R*)]-3-(4-Benzyloxy-phenyl)-2-{4-methyl-2-[3-(4-phenoxy-phenyl)-ureido]pentanoylamino}-propionic acid tert-butyl ester]
Inhibition of Calcium Flux in IMR-32 Cells % Inhibition at 1 μM: 28%

CC(C)CC(NC(=O)N1CCCCCC1)C(=O)NC(Cc1ccc(OCc2ccccc2)cc1)C(=O)NC1CCCN(C)C1c1ccccc1 (stereo not drawn) [Example 197, Azepane-1-carboxylic acid {1-[2-(4-benzyloxy-phenyl)-1-(1-methyl-2-phenyl-piperidin-3-ylcarbamoyl)-ethylcarbamoyl]-3-methyl-butyl}-amide]
IC50: 220 nM

CC(C)CC(NC(=O)N1CCCCCC1)C(=O)NC(Cc1ccc(OCc2ccccc2)cc1)C(=O)NCCCN1CCCCC1C (stereo not drawn) [Example 196, Azepane-1-carboxylic acid (1-{2-(4-benzyloxy-phenyl)-1-[3-(2-methyl-piperidin-1-yl)-propylcarbamoyl]-ethylcarbamoyl}-3-methyl-butyl)-amide]
IC50: 700 nM

CC(C)C[C@H](NC(=O)N1CCCCCC1)C(=O)N[C@@H](Cc1ccc(OCc2ccccc2)cc1)C(=O)NCc1ccc(CN)cc1 [Example 217, [S-(R*,R*)]-Azepane-1-carboxylic acid {1-[1-(4-aminomethyl-benzylcarbamoyl)-2-(4-benzyloxy-phenyl)-ethylcarbamoyl]-3-methyl-butyl}-amide]
inhibition at 1 µM: 35%
inhibition at 10 µM: 75%
IC50: 5000 nM

CC(C)C[C@H](NC(=O)Nc1ccc([N+](=O)[O-])cc1)C(=O)N[C@@H](Cc1ccc(OCc2ccccc2)cc1)C(=O)OC(C)(C)C (relative stereo) [Example 55, [S-(R*,R*)]-3-(4-Benzyloxy-phenyl)-2-{4-methyl-2-[3-(4-nitro-phenyl)-ureido]pentanoylamino}-propionic acid tert-butyl ester]
Inhibition of Calcium Flux in IMR-32 Cells % Inhibition at 1 μM: 14%
Inhibition of Calcium Flux in IMR-32 Cells % Inhibition at 10 μM: 46%

CC(C)CC(NC(=O)N1CCCCCC1)C(=O)NC(Cc1ccc(OCc2ccccc2)cc1)C(=O)NC(C)CN(C)C (stereo not drawn) [Example 230, Azepane-1-carboxylic acid {1-[2-(4-benzyloxy-phenyl)-1-(2-dimethylamino-1-methyl-ethylcarbamoyl)-ethylcarbamoyl]-3-methyl-butyl}-amide]
inhibition at 1 µM: 34%
inhibition at 10 µM: 81%

CC(C)CC(NC(=O)N1CCCCCC1)C(=O)NC(Cc1ccc(OCc2ccccc2)cc1)C(=O)NCC1CCN(Cc2ccccc2)C1 (stereo not drawn) [Example 250, Azepane-1-carboxylic acid (1-{2-(4-benzyloxy-phenyl)-1-[(1-benzyl-pyrrolidin-3-ylmethyl)-carbamoyl]-ethylcarbamoyl}-3-methyl-butyl)-amide]
IC50: 270 nM

CC(C)C[C@H](NC(=O)N1CCCCCC1)C(=O)N[C@@H](Cc1ccc(OCc2ccccc2)cc1)C(=O)NCc1ccncc1 [Example 178, [S-(R*,R*)]-Azepane-1-carboxylic acid (1-{2-(4-benzyloxy-phenyl)-1-[(pyridin-4-ylmethyl)carbamoyl]-ethylcarbamoyl}-3-methyl-butyl)-amide]
IC50: 3100 nM

CC(C)C[C@H](NS(=O)(=O)c1cc(Cl)cc(Cl)c1)C(=O)N[C@@H](Cc1ccc(OCc2ccccc2)cc1)C(=O)OC(C)(C)C (relative stereo) [Example 106, [S-(R*,R*)]-3-(4-Benzyloxy-phenyl)-2-[2-(3,5-dichloro-benzenesulfonylamino)-4-methylpentanoylamino]-propionic acid tert-butyl ester]
Inhibition of Calcium Flux in IMR-32 Cells % Inhibition at 1 μM: 32%

CCCCNC(=O)N[C@@H](CC(C)C)C(=O)N[C@@H](Cc1ccc(OCc2ccccc2)cc1)C(=O)OC(C)(C)C (relative stereo) [Example 59, [S-(R*,R*)]-3-(4-Benzyloxy-phenyl)-2-[2-(3-butyl-ureido)-4-methyl-pentanoylamino]-propionic acid tert-butyl ester]
Inhibition of Calcium Flux in IMR-32 Cells % Inhibition at 1 μM: 41%
Inhibition of Calcium Flux in IMR-32 Cells % Inhibition at 10 μM: 61%

CCCC(=O)N[C@@H](CC(C)C)C(=O)N[C@@H](Cc1ccc(OCc2ccccc2)cc1)C(=O)OC(C)(C)C (relative stereo) [Example 118, [S-(R*,R*)]-3-(4-Benzyloxy-phenyl)-2-(2-butyrylamino-4-methyl-pentanoylamino)-propionic acid tert-butyl ester]
Inhibition of Calcium Flux in IMR-32 Cells % Inhibition at 10 μM: 80%

CCC(=O)N[C@@H](CC(C)C)C(=O)N[C@@H](Cc1ccc(OCc2ccccc2)cc1)C(=O)OC(C)(C)C (relative stereo) [Example 117, [S-(R*,R*)]-3-(4-Benzyloxy-phenyl)-2-(4-methyl-2-propionylamino-pentanoylamino)-propionic acid tert-butyl ester]
Inhibition of Calcium Flux in IMR-32 Cells % Inhibition at 10 μM: 66%

CC(C)C[C@H](NC(=O)N1CCCCCC1)C(=O)N[C@@H](Cc1ccc(OCc2ccccc2)cc1)C(=O)N1CCN(C(c2ccccc2)c2ccccc2)CC1 [Example 270, [S-(R*,R*)]-Azepane-1-carboxylic acid {1-[2-(4-benzhydryl-piperazin-1-yl)-1-(4-benzyloxy-benzyl)-2-oxo-ethylcarbamoyl]-3-methyl-butyl}-amide]
IC50: 1200 nM

CC(C)CC(NC(=O)N1CCCCCC1)C(=O)NC(Cc1ccc(OCc2ccccc2)cc1)C(=O)N1CCCC(C)C1 (stereo not drawn) [Example 200, Azepane-1-carboxylic acid {1-[1-(4-benzyloxy-benzyl)-2-(3-methyl-piperidin-1-yl)-2-oxo-ethylcarbamoyl]-3-methyl-butyl}-amide]
inhibition at 1 µM: 53%
inhibition at 10 µM: 88%
IC50: 900 nM

CC(=O)N[C@H]1CCN(C(=O)[C@H](Cc2ccc(OCc3ccccc3)cc2)NC(=O)[C@H](CC(C)C)NC(=O)N2CCCCCC2)C1 [Example 244]
Inhibition of Calcium Flux in IMR-32 Cells % Inhibition at 1 μM: 24%
Inhibition of Calcium Flux in IMR-32 Cells % Inhibition at 10 μM: 73%

CC(C)C[C@H](NC(=O)Nc1ccccc1)C(=O)N[C@@H](Cc1ccc(OCc2ccccc2)cc1)C(=O)OC(C)(C)C (relative stereo) [Example 54, [S-(R*,R*)]-3-(4-Benzyloxy-phenyl)-2-[4-methyl-2-(3-phenyl-ureido)-pentanoylamino]propionic acid tert-butyl ester]
Inhibition of Calcium Flux in IMR-32 Cells % Inhibition at 1 μM: 44%
Inhibition of Calcium Flux in IMR-32 Cells % Inhibition at 10 μM: 63%

CC(=O)c1ccc(NC(=O)[C@H](Cc2ccc(OCc3ccccc3)cc2)NC(=O)[C@H](CC(C)C)NC(=O)N2CCCCCC2)cc1 [Example 212, [S-(R*,R*)]-Azepane-1-carboxylic acid {1-[1-(4-acetyl-phenylcarbamoyl)-2-(4-benzyloxy-phenyl)-ethylcarbamoyl]-3-methyl-butyl}-amide]
inhibition at 1 µM: 34%
inhibition at 10 µM: 66%
IC50: 1900 nM

CCC(CO)NC(=O)[C@H](Cc1ccc(OCc2ccccc2)cc1)NC(=O)[C@H](CC(C)C)NC(=O)N1CCCCCC1 (relative stereo) [Example 226, [S-(R*,R*)]-Azepane-1-carboxylic acid {1-[2-(4-benzyloxy-phenyl)-1-(1-hydroxymethyl-propylcarbamoyl)-ethylcarbamoyl]-3-methyl-butyl}-amide]
Inhibition of Calcium Flux in IMR-32 Cells % Inhibition at 1 μM: 37%
Inhibition of Calcium Flux in IMR-32 Cells % Inhibition at 10 μM: 84%

CC(C)C[C@H](NC(=O)N1CCCCCC1)C(=O)N[C@@H](Cc1ccc(OCc2ccccc2)cc1)C(=O)NCc1ccccc1 [Example 263, [S-(R*,R*)]-Azepane-1-carboxylic acid {1-[1-benzylcarbamoyl-2-(4-benzyloxy-phenyl)-ethylcarbamoyl]-3-methyl-butyl}-amide]
IC50: 1200 nM

CCN(CC)C(=O)C1CCCN(C(=O)C(Cc2ccc(OCc3ccccc3)cc2)NC(=O)C(CC(C)C)NC(=O)N2CCCCCC2)C1 (stereo not drawn) [Example 189, Azepane-1-carboxylic acid {1-[1-(4-benzyloxy-benzyl)-2-(3-diethylcarbamoyl-piperidin-1-yl)-2-oxo-ethylcarbamoyl]-3-methyl-butyl}-amide]
IC50: 940 nM

CC(C)C[C@H](NC(=O)NCc1ccccc1)C(=O)N[C@@H](Cc1ccc(OCc2ccccc2)cc1)C(=O)OC(C)(C)C (relative stereo) [Example 60, [S-(R*,R*)]-3-(4-Benzyloxy-phenyl)-2-[2-(3-benzyl-ureido)-4-methyl-pentanoylamino]-propionic acid tert-butyl ester]
Inhibition of Calcium Flux in IMR-32 Cells % Inhibition at 1 μM: 24%
